Data set [1] in a line: In vitro cumulative drug release from devices in PBS (pH 7.4) at 37° C. under gentle shaking. Format: physicochemical.
Data set [2] has as its system Candida albicans (ATCC 18804). Kind of data set: Liquid assay, inhibition of yeast growth in Sabouraud dextrose broth. The data set is classed as cell-based. Particulars: for Optical Density (OD600): 12 h; for Cell Density: converted from OD600. On the procedure: Liquid assay was also used to further characterize the […] properties. Candida albicans (ATCC 18804) was cultured in Sabouraud dextrose broth with a starting concentration of 0.08 OD600 value. After 12 h, optical density was measured using spectrometer at 600 nm wavelength. Then, conversion to cell density is using the approximation 0.5 equals 1.5×10^8 CFU/ml.

The record followed here is patent publication US20220387303A1, “Vaginal Drug Delivery Device” (THE REGENTS OF THE UNIVERSITY OF CALIFORNIA, priority 2019, published 2022).

Converted amounts (≈) assume the structure as drawn.

Consider `Clc1ccccc1C(c1ccccc1)(c1ccccc1)n1ccnc1` [Clotrimazole], for which the sustained release duration result in data set [1] (clotrimazole from PLGA device) is “up to 10 days”. Besides, the IC50 in data set [2] (Candida albicans, ATCC18804, after 12 h, starting 0.08 OD600, read-out: IC50 (half maximal inhibitory concentration)) worked out at 3.3 µg/mL (≈ 9.57 µM). Moreover, the “Optical Density (OD600)” value was 0.9 in data set [2] (Clotrimazole Conc. 0.37 μg/ml), 0.8 in data set [2] (Clotrimazole Conc. 1.1 μg/ml), 0.7 in data set [2] (Clotrimazole Conc. 3.3 μg/ml) and 0.5 in data set [2] (Clotrimazole Conc. 10 μg/ml). The “Cell Density” value in data set [2] (Clotrimazole Conc. 0.37 μg/ml) was 2.7e+08 mL⁻¹; in data set [2] (Clotrimazole Conc. 1.1 μg/ml), 2.4e+08 mL⁻¹; in data set [2] (Clotrimazole Conc. 3.3 μg/ml) it was 2.1e+08 mL⁻¹; in data set [2] (Clotrimazole Conc. 10 μg/ml), 1.5e+08 mL⁻¹.
Regarding `CC(=O)[C@H]1CC[C@H]2[C@@H]3CCC4=CC(=O)CC[C@]4(C)[C@H]3CC[C@]12C` [progesterone], the “prolonged and sustained release of hormone drugs, duration” value in data set [1] (released from device) is recorded as “more than two months”.
